Results on five compounds are retold here after patent US3989835A, “Method of using 6-substituted amino phenyl-2,3,5,6-tetra-hydro[2,1-b]thiazoles for controlling gastrointestinal nematodes” (American Cyanamid Company, priority 1974, dated 1976).

“And” between values parts separate entries of the source, which are not always exact repeats. Equal entries are not always repeated. Structures can show the parent of a compound that is named as a salt. Where two headings read alike, the source gives them in different places. A value given as a limit tells only on which side of the number the result lay.

One data set relates to whipworms. The following applies: prior art compounds, especially in dogs; cited from earlier work.
The next data set concerns Trichuris vulpis. The data set is described as follows: Oral or subcutaneous activity vs. mature Trichuris vulpis in dogs (critical test). The class given is in vivo. Here is the method:
(§1) Dogs infected with mature adult whipworms Trichuris vulpis were treated with various single or double doses of unsubstituted or substituted tetramisole analogs by the oral or subcutaneous route (Table XI hereinafter). Whipworms passed in the feces were collected for several days, and the whipworms still present determined at necropsy. Percent efficacy was determined in these "critical" tests. […] Trichuris is a type of nematode refactory to treatment with most prior anthelmintics at well tolerated doses. Taxonomically allied nematodes, e.g., Trichinella and Capillaria are also refractory to most anthelmintics.

Data set [1] concerns helminths. The following applies: prior art compounds; cited from earlier work.
In a further data set the test system is Nematospiroides dubius. The data set is described as follows: Anthelmintic efficacy against N. dubius in mice, single oral dose. The class given is in vivo, Nematospiroides dubius (in albino female mice). The following applies: for inhibition in vivo at 10 mg/kg: single oral dose 10 mg./Kg.
Data set [2] in a line: in vivo. The following applies: for LD50: mouse, in vivo, po; for Approx. LD50 /ED50: chemotherapeutic index, mouse oral, N. dubius; for Dead/Total: mice. An excerpt: Data on the acute oral toxicity to mice of various single oral doses of the above compounds and several analogs were obtained by conventional procedures, (Table IX hereinafter).
A short description of data set [3]: in vivo. The following applies: dog. As to the method: as §1
Data set [4] has as its system helminths. The experiment in a line: Activity against helminths (general statement). The following applies: in vivo.
[5] abbreviates: LD50, mice, adjusted to molar equivalents of tetramisole free base.
[6] abbreviates: Heligmosomoides polygyrus, po, single oral dose 2.0 mg./Kg., molar-adjusted, read-out: Percent Nematospiroides Activity.
Where [7] appears, read: Heligmosomoides polygyrus, po, molar-adjusted, read-out: Percent Nematospiroides Activity.
Where [8] appears, read: oral 5 Mg./Kg., based on total worms in all dogs.
Setting [9] is: Approx. LD50, mouse oral, Table IX.
The mark [10] stands for this setting: Heligmosomoides polygyrus, po, mouse oral, Table IX, read-out: Approx. ED50 vs. N. dubius.

A word on the ED50: it is the midpoint of the dose-response relation. In the case of `c1ccc(C2CN3CCSC3=N2)cc1` (racemic) [dl-tetramisole, dl-6-phenyl-2,3,5,6-tetrahydroimidazo[2,1-b]thiazole, reference compound], the “activity against whipworms in words” value in the data set with whipworms was “not sufficiently active against whipworms, especially in dogs”. Besides, in the data set with Trichuris vulpis (> means inactive at dose shown, oral), the “oral dose at which inactive (% Efficacy Orally column)” value is over 10 mg/kg. Besides, in the data set on Trichuris vulpis (SC 10 Mg./Kg., listed as dl H), the “% Efficacy SC” value came to 2%. In addition, in the data set with helminths [1], the “activity against helminths in words” value is listed as “highly effective against most helminths”. Moreover, the ED50 in the data set with Nematospiroides dubius (Heligmosomoides polygyrus, read-out: ED50 (approximate dose which removes 50% of the worms), N. dubius in mice, single oral dose) is about 9 mg/kg; with Nematospiroides dubius (Heligmosomoides polygyrus, as Base, single oral dose, mice, > indicates inactive at dose shown, read-out: Approx. ED50) it was 9 mg/kg; in the data set with Nematospiroides dubius (Heligmosomoides polygyrus, mouse oral, Table IX, read-out: Approx. ED50 vs. N. dubius) it was 9 mg/kg. Moreover, the “Average % Efficacy” value is given as 7% in the data set on Nematospiroides dubius (single oral dose 6 mg./kg.); 33% in the data set on Nematospiroides dubius (single oral dose 8 mg./kg.); 70% with Nematospiroides dubius (single oral dose 10 mg./kg., N. dubius, mice); 66% in the data set on Nematospiroides dubius (single oral dose 12 mg./kg.); 88% in the data set on Nematospiroides dubius (single oral dose 16 mg./kg.); 98% in the data set with Nematospiroides dubius (single oral dose 20 mg./kg.). Also, the “% Efficacy per Group” value was 28% and 33% and 39% with Nematospiroides dubius (single oral dose 8 mg./kg.); 60% and 62% and 68% and 73% with Nematospiroides dubius (single oral dose 12 mg./kg.); 74% and 91% and 92% and 94% with Nematospiroides dubius (single oral dose 16 mg./kg.); 96% and 98% and 99% and 100% in the data set with Nematospiroides dubius (single oral dose 20 mg./kg.).
A word on the LD50: it is the dose expected to kill half of the subjects tested. On to `O=CNc1cccc(C2CN3CCSC3=N2)c1` (stereo not drawn) [HNCHO l-], for which the results for the “% Efficacy Orally” value with Trichuris vulpis (oral 1.25 Mg./Kg.) and in the data set on Trichuris vulpis (oral 2.5 Mg./Kg.) were 46% and 100%, respectively. For the same compound, the LD50 in the data set “in vivo [2]” (setting [5]) was about 30 mg/kg. Moreover, the MTD in the data set “in vivo [3]” (po) was 2.5 mg/kg. Also, in the data set with Nematospiroides dubius (Heligmosomoides polygyrus, po, single oral dose 1.25 mg./Kg., molar-adjusted, read-out: Percent Nematospiroides Activity), the inhibition in vivo at 1.25 mg/kg worked out at 61%. Further, the inhibition in vivo at 2 mg/kg in the data set on Nematospiroides dubius (setting [6]) was 72%. Moreover, in the data set on Nematospiroides dubius (Heligmosomoides polygyrus, po, single oral dose 5.0 mg./Kg., molar-adjusted, read-out: Percent Nematospiroides Activity), the inhibition in vivo at 5 mg/kg amounted to 95%. For the same compound, the inhibition in vivo at 10 mg/kg in the data set with Nematospiroides dubius (setting [7]) worked out at 100%.
For the compound `c1ccc(C2CN3CCSC3=N2)cc1` (stereo not drawn) [l H, l-6-phenyl-2,3,5,6,-tetrahydroimidazo[2,1-b]thiazole, reference compound], the “activity against whipworms in words” value in the data set with whipworms is listed as “not sufficiently active against whipworms, especially in dogs”. Further, the “% Efficacy SC” value worked out at 8% in the data set with Trichuris vulpis (SC 5 Mg./Kg.), 50% with Trichuris vulpis (SC 10 Mg./Kg.), 43% in the data set on Trichuris vulpis (SC 15 Mg./Kg.) and 100% with Trichuris vulpis (SC 20 Mg./Kg.). In addition, the “activity against helminths in words” value in the data set with helminths [1] is on record as “highly effective against most helminths”.
`Nc1cccc(C2CN3CCSC3=N2)c1` (stereo not drawn) [m-NH2 l, l-6-(m-Aminophenyl)-2,3,5,6-tetrahydroimidazo[2,1-b]thiazoleDihydrochloride]: the “% Efficacy SC” value in the data set on Trichuris vulpis (SC 1.25 Mg./Kg.) is reported as 72%; in the data set on Trichuris vulpis (SC 2.5 Mg./Kg.), 100%. Moreover, the “% Efficacy Orally” value was 94% in the data set with Trichuris vulpis (oral 1.25 Mg./Kg.), 100% in the data set with Trichuris vulpis (oral 2.5 Mg./Kg.) and 100% with Trichuris vulpis (setting [8]). The “Approx. LD50 /ED50” value in “in vivo [2]” (Table IX) stood at 20. The LD50 in “in vivo [2]” (setting [9]) was 15 mg/kg; in “in vivo [2]” (setting [5]), about 15 mg/kg. In addition, the Dead/Total in the data set “in vivo [2]” (single oral dose 4-5 Mg./Kg.) is 0/12; in “in vivo [2]” (single oral dose 10 Mg./Kg.) it was 2/10; in the data set “in vivo [2]” (single oral dose 15 Mg./Kg.) it was 3/9; in the data set “in vivo [2]” (single oral dose 20 Mg./Kg.) it was 4/5. In addition, in the data set with helminths [4], the “activity relative to the dl compound” value was “almost twice as active as the dl compound”. The MTD in the data set “in vivo [3]” (po) was found to be 10 mg/kg; in the data set “in vivo [3]” (sc), 4 mg/kg. Moreover, in the data set on Nematospiroides dubius (setting [10]), the ED50 amounted to 0.75 mg/kg. Also, the “Percent Nematospiroides Activity” value came out at 59% in the data set on Nematospiroides dubius (single oral dose 1.25 mg./Kg., molar-adjusted); 88% in the data set with Nematospiroides dubius (single oral dose 2.0 mg./Kg., molar-adjusted); 98% in the data set on Nematospiroides dubius (single oral dose 4.0 mg./Kg., molar-adjusted).
With `CNc1cccc(C2CN3CCSC3=N2)c1.Cl.Cl` (stereo not drawn) [m-NH--CH3 dl, 2,3,5,6-Tetrahydro-6-(m-methylaminophenyl)imidazo[2,1-b]thiazole Dihydrochloride], the “% Efficacy SC” value worked out at 29% in the data set with Trichuris vulpis (SC 2.5 Mg./Kg.) and 94% in the data set on Trichuris vulpis (SC 5 Mg./Kg.). The “% Efficacy Orally” value in the data set on Trichuris vulpis (setting [8]) was determined as 100%. In addition, the “Approx. LD50 /ED50” value in “in vivo [2]” (Table IX) came out at 14. This compound also displayed an LD50 in “in vivo [2]” (setting [9]) of 100 mg/kg. Also, the Dead/Total in the data set “in vivo [2]” (single oral dose 20 Mg./Kg.) is 0/4; in the data set “in vivo [2]” (single oral dose 50 Mg./Kg.), 0/4; in the data set “in vivo [2]” (single oral dose 100 Mg./Kg.), 2/5. For the same compound, the values for the MTD in “in vivo [3]” (po) and in the data set “in vivo [3]” (sc) were over 10 mg/kg and 30 mg/kg, respectively. Moreover, the ED50 in the data set on Nematospiroides dubius (Heligmosomoides polygyrus, po, as Base, single oral dose, mice, > indicates inactive at dose shown, read-out: Approx. ED50) is 7 mg/kg; in the data set with Nematospiroides dubius (setting [10]), 7 mg/kg. Moreover, the inhibition in vivo at 2 mg/kg in the data set on Nematospiroides dubius (setting [6]) worked out at 28%. For the same compound, in the data set with Nematospiroides dubius (setting [7]), the inhibition in vivo at 10 mg/kg worked out at 66%. Moreover, the inhibition in vivo at 20 mg/kg in the data set with Nematospiroides dubius (Heligmosomoides polygyrus, po, single oral dose 20 mg./Kg., molar-adjusted, read-out: Percent Nematospiroides Activity) was determined as 100%. Moreover, in the data set on Nematospiroides dubius (Heligmosomoides polygyrus, po, single oral dose 30 mg./Kg., molar-adjusted, read-out: Percent Nematospiroides Activity), the inhibition in vivo at 30 mg/kg was 100%.
